Values after ≈ are worked out from the molar mass of the structure shown.
Columns and labels:
[1] = Partition coefficient, phosphate buffer/n-octanol; type: physicochemical; conditions: n-octanol/50 mm phosphate buffer; 50 mM phosphate buffer (pH 7.4, μ=0.15)/n-octanol
Protocol: Following the method proposed by Akira Tsuji et al. in Antimicrob. Agents Chemother., 32, 190-194 (1988), 50 mM phosphate buffer (pH 7.4, μ=0.15)/n-octanol partition coefficients were measured.

mice = test: Interaction with fenbufen and toxicological study (coadministration test with fenbufen); type: in vivo
Protocol: Fenbufen and the quinolone compounds were each diluted with a solution of 0.5% methylcellulose.
A dose of 200 mg/kg of fenbufen was administered by oral route to groups of 10 mice (female, ICR, 18-23 g) 90 minutes before administration of the quinolone compounds by oral route, at a dose of 500 mg/kg. […] Following the 24 hours number of survival animals was noted.

[2] = test system: E. coli NIH JC-2 (IFO 12734); test: Minimum inhibitory concentration, standard method of the Japan Society of Chemotherapy; type: cell-based; conditions: Escherichia coli, IFO12734
Protocol: (§1) With respect to certain representative compounds among the compounds [I] of the present invention, their minimum inhibitory concentrations (MIC; μg/ml) were measured in accordance with the standard method established by the Japan Society of Chemotherapy [CHEMOTHERAPY, 29(1), 76-79 (1981)]. The results are summarized in Table 1, in which the compound numbers are as shown in examples.

P. aeruginosa (IFO 3445) = test: as above; type: cell-based; conditions: Pseudomonas aeruginosa, IFO3445
Protocol: as §1

[3] = test system: S. aureus 209 P (IFO 12732); test: as above; type: cell-based; conditions: Staphylococcus aureus, IFO12732
Protocol: as §1

Structure (SMILES)	logD [1]	Mortality, number of dead mice (mice; quinolone 500 mg/kg oral, 90 min after fenbufen 200 mg/kg oral, 24 hours)	Induction of convulsion, number of positive mice (mice; quinolone 500 mg/kg oral, 90 min after fenbufen 200 mg/kg oral, during two hours)	MIC [2] [mg/L]	MIC (P. aeruginosa (IFO 3445)) [mg/L]	MIC [3] [mg/L]	Induction of convulsion, number of positive mice (mice; mouse, in vivo)	Mortality, number of dead mice (mice; mouse, in vivo)
C[C@H]1CN(c2c(F)c(N)c3c(=O)c(C(=O)O)cn(C4COC4)c3c2F)C[C@H]1N (single isomer, unassigned) [Compound 113, 5-Amino-7-{(-)-cis-3-amino-4-methylpyrrolidin-1-yl}-6,8-difluoro-1-(oxetan-3-yl)-1,4-dihydro-4-oxoquinoline-3-carboxylic acid]	-0.529							
C[C@H]1CN(c2c(F)c(N)c3c(=O)c(C(=O)O)cn(C4COC4)c3c2F)C[C@H]1N.O=S(=O)(O)O (single isomer, unassigned) [Compound 117, 5-Amino-7-{(-)-cis-3-amino-4-methylpyrrolidin-1-yl}-6,8-difluoro-1-(oxetan-3-yl) -1,4-dihydro-4-oxoquinoline-3-carboxylic acid sulfuric acid salt]		0/10	0/10					
CN1CCN(c2c(F)c(N)c3c(=O)c(C(=O)O)cn(C4COC4)c3c2F)CC1 [Compound 29]	-0.333			0.1 (≈ 0.254 µM)	0.78 (≈ 1.98 µM)	0.78 (≈ 1.98 µM)	0/10	0/10
CCNCC1CCN(c2c(F)c(N)c3c(=O)c(C(=O)O)cn(C4COC4)c3c2F)C1 (centres unmarked) [Compound 53]				0.2 (≈ 0.473 µM)	3.13 (≈ 7.41 µM)	0.1 (≈ 0.237 µM)		
Nc1c(F)c(N2CCNCC2)c(F)c2c1c(=O)c(C(=O)O)cn2C1COC1 [Compound 55]				0.39 (≈ 1.03 µM)	0.78 (≈ 2.05 µM)	0.78 (≈ 2.05 µM)		
Nc1c(F)c(N2CCOCC2)c(F)c2c1c(=O)c(C(=O)O)cn2C1COC1 [Compound 58]				0.78 (≈ 2.05 µM)	6.25 (≈ 16.4 µM)	0.39 (≈ 1.02 µM)		
Nc1c(F)c(N2CCC(O)C2)c(F)c2c1c(=O)c(C(=O)O)cn2C1COC1 (centres unmarked) [Compound 59]				0.39 (≈ 1.02 µM)	3.13 (≈ 8.21 µM)	0.39 (≈ 1.02 µM)		
CN1CCN(c2nc3c(cc2F)c(=O)c(C(=O)O)cn3C2COC2)CC1 [Compound 61, 6-Fluoro-7-(4-methylpiperazin-1-yl)-1-(oxetan-3-yl)-1,4-dihydro-4-oxo-1,8-naphthylidine-3-carboxylic acid]				0.39 (≈ 1.08 µM)	1.56 (≈ 4.31 µM)	3.13 (≈ 8.64 µM)		
NC1CCN(c2nc3c(cc2F)c(=O)c(C(=O)O)cn3C2COC2)C1 (centres unmarked) [Compound 65]				0.2 (≈ 0.574 µM)	0.39 (≈ 1.12 µM)	1.56 (≈ 4.48 µM)		
CN(C)C1CCN(c2nc3c(cc2F)c(=O)c(C(=O)O)cn3C2COC2)C1 (centres unmarked) [Compound 66]				0.39 (≈ 1.04 µM)	3.13 (≈ 8.32 µM)	3.13 (≈ 8.32 µM)		
CCNC1CCN(c2nc3c(cc2F)c(=O)c(C(=O)O)cn3C2COC2)C1 (centres unmarked) [Compound 69]				0.39 (≈ 1.04 µM)	1.56 (≈ 4.14 µM)	3.13 (≈ 8.32 µM)		
CNCC1CCN(c2nc3c(cc2F)c(=O)c(C(=O)O)cn3C2COC2)C1 (centres unmarked) [Compound 70]				1.56 (≈ 4.14 µM)	6.25 (≈ 16.6 µM)	0.39 (≈ 1.04 µM)		
O=C(O)c1cn(C2COC2)c2nc(N3CCCC3)c(F)cc2c1=O [Compound 72]				0.39 (≈ 1.17 µM)	3.13 (≈ 9.39 µM)	0.2 (≈ 0.6 µM)		
O=C(O)c1cn(C2COC2)c2nc(N3CCSC3)c(F)cc2c1=O [Compound 73]				0.78 (≈ 2.22 µM)	6.25 (≈ 17.8 µM)	0.78 (≈ 2.22 µM)		
COc1c(N2CCC(N)C2)c(F)cc2c(=O)c(C(=O)O)cn(C3COC3)c12 (centres unmarked) [Compound 76, 7-(3-Aminopyrrolidin-1-yl)-6-fluoro-8-methoxy-1-(oxetan-3-yl)-1,4-dihydro-4-oxoquinoline-3-carboxylic acid]				0.39 (≈ 1.03 µM)	1.56 (≈ 4.13 µM)	0.2 (≈ 0.53 µM)		
COc1c(N2CCC(N(C)C)C2)c(F)cc2c(=O)c(C(=O)O)cn(C3COC3)c12 (centres unmarked) [Compound 77]				1.56 (≈ 3.85 µM)	12.5 (≈ 30.8 µM)	1.56 (≈ 3.85 µM)		
CCNCC1CCN(c2c(F)cc3c(=O)c(C(=O)O)cn(C4COC4)c3c2OC)C1 (centres unmarked) [Compound 79]				1.56 (≈ 3.72 µM)	25 (≈ 59.6 µM)	0.1 (≈ 0.238 µM)		
COc1c(N2CCNCC2)c(F)cc2c(=O)c(C(=O)O)cn(C3COC3)c12 [Compound 81]				0.78 (≈ 2.07 µM)	3.13 (≈ 8.29 µM)	0.78 (≈ 2.07 µM)		
CCNC1CCN(c2c(F)cc3c(=O)c(C(=O)O)cn(C4COC4)c3c2OC)C1 (centres unmarked) [Compound 82]				1.56 (≈ 3.85 µM)	12.5 (≈ 30.8 µM)	0.78 (≈ 1.92 µM)		
CN(C)NC1CCN(c2c(F)c(N)c3c(=O)c(C(=O)O)cn(C4COC4)c3c2F)C1 (centres unmarked) [Compound 96]				0.1 (≈ 0.236 µM)	0.78 (≈ 1.84 µM)	0.39 (≈ 0.921 µM)		
Nc1c(F)c(N2CCN(O)CC2)c(F)c2c1c(=O)c(C(=O)O)cn2C1COC1 [Compound 107]				0.78 (≈ 1.97 µM)	6.25 (≈ 15.8 µM)	3.13 (≈ 7.9 µM)		
Cl.N=CN1CCN(c2c(F)c(N)c3c(=O)c(C(=O)O)cn(C4COC4)c3c2F)CC1 [Compound 108, 5-Amino-6,8-difluoro-7-(4-formimidoylpiperazin-1-yl)-1-(oxetan-3-yl)-1,4-dihydro-4-oxoquinoline-3-carboxylic acid hydrochloride]				0.78	3.13	0.78		
CC(=N)N1CCN(c2c(F)c(N)c3c(=O)c(C(=O)O)cn(C4COC4)c3c2F)CC1 [Compound 109]				0.39 (≈ 0.925 µM)	3.13 (≈ 7.43 µM)	0.78 (≈ 1.85 µM)		
N=CNC1CCN(c2c(F)c(N)c3c(=O)c(C(=O)O)cn(C4COC4)c3c2F)C1 (centres unmarked) [Compound 110]				0.78 (≈ 1.91 µM)	6.25 (≈ 15.3 µM)	1.56 (≈ 3.83 µM)		
CCn1cc(C(=O)O)c(=O)c2cc(F)c(N3CCNCC3)nc21 [Enoxacin, enoxacin, reference compound]							10/10	10/10
